We go through 21 compounds from PubChem BioAssay AID256 (DTP/NCI, 2004).

The subject of this experiment is CD2F1 mice, L1210 leukemia ip, survival T/C. Briefly: NCI In Vivo Anticancer Drug Screen. Data for tumor model L1210 Leukemia (intraperitoneal) in CD2F1 (CDF1) mice. The following applies: higher = longer survival. The essentials:
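In this screen, transplantable tumors were grown in mice given either the compound or its vehicle. Results were expressed as the treated measurement relative to the control measurement.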

The mark [1] stands for this setting: endpoint: mean survival time, dose: 100.0 mg/kg/injection, schedule: Q01DX009 (ip), vehicle: saline with Tween-80.
The mark [2] stands for this setting: endpoint: mean survival time, dose: 200.0 mg/kg/injection, schedule: Q01DX009 (ip), vehicle: saline with Tween-80.
Setting [3] is: endpoint: mean survival time, dose: 400.0 mg/kg/injection, schedule: Q01DX009 (ip), vehicle: saline with Tween-80.
Setting [4] is: endpoint: mean survival time, dose: 100.0 mg/kg/injection, schedule: Q04DX003 (ip), vehicle: saline with Tween-80.
The mark [5] stands for this setting: endpoint: mean survival time, dose: 200.0 mg/kg/injection, schedule: Q04DX003 (ip), vehicle: saline with Tween-80.
[6] abbreviates: endpoint: mean survival time, dose: 400.0 mg/kg/injection, schedule: Q04DX003 (ip), vehicle: saline with Tween-80.
The mark [7] stands for this setting: endpoint: mean survival time, dose: 200.0 mg/kg/injection, schedule: Q01DX009 (ip), vehicle: saline.
[8] abbreviates: endpoint: mean survival time, dose: 50.0 mg/kg/injection, schedule: Q01DX009 (ip), vehicle: saline with Tween-80.

The structures appear in SMILES notation. Several values for one entry are separate records, joined by “and”; a condition that tells them apart may be missing. Equal values may be shown once. Toxic doses and inconclusive results are not listed.

Regarding `Cc1[nH]c(=S)[nH]c(=O)c1CC(C)O` (stereo not drawn), the T/C was 97 % of control under setting [1], 90 % of control under setting [2] and 98 % of control under setting [3].

With `O=[N+]([O-])c1cc(S(=O)(=O)c2ccc(N3CCOCC3)c([N+](=O)[O-])c2)ccc1N1CCOCC1`, the T/C was 93 % of control under setting [1], 101 % of control under setting [2] and 92 % of control under setting [3].

As for `CC(=O)NC(C)(C)C`, the T/C reads like this: under setting [4], 98 % of control; under setting [5], 106 % of control; under setting [6], 104 % of control.

As for `COC(=O)/C([O-])=C(\C(=O)OC)[n+]1cc(Br)cc2ccccc21`, the T/C reads like this: (endpoint: mean survival time, dose: 100.0 mg/kg/injection, schedule: Q04DX002 (ip), vehicle: saline with Tween-80) 101 % of control; (endpoint: mean survival time, dose: 200.0 mg/kg/injection, schedule: Q04DX002 (ip), vehicle: saline with Tween-80) 104 % of control.

For `c1cc2c3c(cccc3c1)/C(=C1/Cc3cccc4cccc1c34)C2`, the T/C runs as follows: under setting [1], 107 % of control; under setting [4], 103 % of control; under setting [2], 113 % of control; under setting [5], 104 % of control; under setting [3], 110 % of control; under setting [6], 107 % of control.

For the compound `CN1C(=O)C(C)(C)C(=O)C1(C)C`, the T/C (endpoint: mean survival time, dose: 25.0 mg/kg/injection, schedule: Q01DX001 (ip), vehicle: saline) was 103 % of control; the T/C (endpoint: mean survival time, dose: 50.0 mg/kg/injection, schedule: Q01DX001 (ip), vehicle: saline) is 104 % of control; the T/C (endpoint: mean survival time, dose: 100.0 mg/kg/injection, schedule: Q01DX001 (ip), vehicle: saline) is 103 % of control.

Consider `Nc1ccn([C@H]2C[C@@H](CO)[C@H](O)[C@@H]2O)c(=O)n1`, for which the T/C reads like this: (endpoint: mean survival time, dose: 22.0 mg/kg/injection, schedule: Q03HX024 (ip), vehicle: saline) 159 % of control; (endpoint: mean survival time, dose: 33.0 mg/kg/injection, schedule: Q03HX024 (ip), vehicle: saline) 164 % of control; (endpoint: mean survival time, dose: 50.0 mg/kg/injection, schedule: Q03HX024 (ip), vehicle: saline) 169 % of control; (endpoint: mean survival time, dose: 75.0 mg/kg/injection, schedule: Q04HX024 (ip), vehicle: saline) 176 % of control; (endpoint: mean survival time, dose: 100.0 mg/kg/injection, schedule: Q04HX024 (ip), vehicle: saline) 177 % of control; (endpoint: mean survival time, dose: 150.0 mg/kg/injection, schedule: Q01DX009 (ip), vehicle: saline) 150 % of control. In addition, the T/C is, setting by setting: under setting [7], 182 % of control; (endpoint: mean survival time, dose: 450.0 mg/kg/injection, schedule: Q01DX009 (ip), vehicle: saline) 166 % of control.

Regarding `S=C(NCCNC(=S)[S][Sn]([c]1ccccc1)([c]1ccccc1)[c]1ccccc1)[S][Sn]([c]1ccccc1)([c]1ccccc1)[c]1ccccc1`, the T/C by setting is: (endpoint: mean survival time, dose: 25.0 mg/kg/injection, schedule: Q04DX003 (ip), vehicle: saline with Tween-80) 88 % of control; (endpoint: mean survival time, dose: 50.0 mg/kg/injection, schedule: Q04DX003 (ip), vehicle: saline with Tween-80) 93 % of control; under setting [4], 100 % of control.

As for `OC(Cc1ccc2ccccc2n1)C(Cl)(Cl)Cl` (stereo not drawn), the T/C (endpoint: mean survival time, dose: 100.0 mg/kg/injection, schedule: Q04DX003 (ip), vehicle: alcohol) is 95 % of control; the T/C (endpoint: mean survival time, dose: 200.0 mg/kg/injection, schedule: Q04DX003 (ip), vehicle: alcohol) is 95 % of control; the T/C (endpoint: mean survival time, dose: 400.0 mg/kg/injection, schedule: Q04DX003 (ip), vehicle: alcohol) is 101 % of control.

As to `[Cl][Pt+2][Cl].[NH-]c1cc(Cl)c(Cl)cc1[NH-]`, the T/C (endpoint: mean survival time, dose: 2.5 mg/kg/injection, schedule: Q01DX009 (ip), vehicle: saline with Tween-80) is 107 % of control; the T/C (endpoint: mean survival time, dose: 5.0 mg/kg/injection, schedule: Q01DX009 (ip), vehicle: saline with Tween-80) was 105 % of control; the T/C (endpoint: mean survival time, dose: 10.0 mg/kg/injection, schedule: Q01DX009 (ip), vehicle: saline with Tween-80) was 111 % of control; the T/C (endpoint: mean survival time, dose: 20.0 mg/kg/injection, schedule: Q01DX009 (ip), vehicle: saline with Tween-80) is 106 % of control and 112 % of control; the T/C (endpoint: mean survival time, dose: 40.0 mg/kg/injection, schedule: Q01DX009 (ip), vehicle: saline with Tween-80) was 105 % of control and 112 % of control; the T/C (endpoint: mean survival time, dose: 80.0 mg/kg/injection, schedule: Q01DX009 (ip), vehicle: saline with Tween-80) is 110 % of control. The T/C is, setting by setting: (endpoint: mean survival time, dose: 160.0 mg/kg/injection, schedule: Q01DX009 (ip), vehicle: saline with Tween-80) 104 % of control; (endpoint: mean survival time, dose: 320.0 mg/kg/injection, schedule: Q01DX009 (ip), vehicle: saline with Tween-80) 107 % of control.

With `C[N+](C)(C)/N=C\c1cccc2ccccc12`, the T/C by setting is: (endpoint: mean survival time, dose: 6.25 mg/kg/injection, schedule: Q01DX009 (ip), vehicle: saline with Tween-80) 111 % of control; (endpoint: mean survival time, dose: 12.5 mg/kg/injection, schedule: Q01DX009 (ip), vehicle: saline with Tween-80) 107 % of control; (endpoint: mean survival time, dose: 25.0 mg/kg/injection, schedule: Q01DX009 (ip), vehicle: saline with Tween-80) 104 % of control.

In the case of `O=C1CCC(=O)CC1`, the T/C was 111 % of control (endpoint: mean survival time, dose: 100.0 mg/kg/injection, schedule: Q04DX002 (ip), vehicle: saline); 107 % of control (endpoint: mean survival time, dose: 200.0 mg/kg/injection, schedule: Q04DX002 (ip), vehicle: saline); 107 % of control (endpoint: mean survival time, dose: 400.0 mg/kg/injection, schedule: Q04DX002 (ip), vehicle: saline).

For the compound `COC(=O)C1CC2C(=O)CCCCCCC2C1O` (stereo not drawn), the T/C by setting is: (endpoint: mean survival time, dose: 100.0 mg/kg/injection, schedule: Q01DX001 (ip), vehicle: saline with Tween-80) 93 % of control; (endpoint: mean survival time, dose: 200.0 mg/kg/injection, schedule: Q01DX001 (ip), vehicle: saline with Tween-80) 101 % of control; (endpoint: mean survival time, dose: 400.0 mg/kg/injection, schedule: Q01DX001 (ip), vehicle: saline with Tween-80) 98 % of control.

Consider `Nc1ncnc2c1ncn2C1OC(C[Se](=O)c2ccccc2)C(O)C1O` (stereo not drawn), for which the T/C runs as follows: (endpoint: median survival time, dose: 12.5 mg/kg/injection, schedule: Q01DX005 (ip), vehicle: Klucel (hydroxypropylcellulose) (HPC)) 102 % of control; (endpoint: median survival time, dose: 25.0 mg/kg/injection, schedule: Q01DX005 (ip), vehicle: Klucel (hydroxypropylcellulose) (HPC)) 106 % of control; (endpoint: median survival time, dose: 50.0 mg/kg/injection, schedule: Q01DX005 (ip), vehicle: Klucel (hydroxypropylcellulose) (HPC)) 103 % of control; (endpoint: median survival time, dose: 100.0 mg/kg/injection, schedule: Q01DX005 (ip), vehicle: Klucel (hydroxypropylcellulose) (HPC)) 103 % of control; (endpoint: median survival time, dose: 200.0 mg/kg/injection, schedule: Q01DX005 (ip), vehicle: Klucel (hydroxypropylcellulose) (HPC)) 104 % of control.

For the compound `Fc1cc(F)c(F)c(-c2c(F)c(F)cc(F)c2F)c1F`, the T/C was 103 % of control under setting [8], 103 % of control under setting [1] and 96 % of control under setting [2].

Consider `CCCCN1C(=O)C(=O)N(c2cc(OC)ccc2OC)C1=O`, for which the T/C was 86 % of control under setting [8], 90 % of control under setting [1] and 86 % of control under setting [2].

On to `CC/C(=C/c1ccc(OC)cc1)[N+](=O)[O-]`, for which the T/C is, setting by setting: (endpoint: mean survival time, dose: 12.5 mg/kg/injection, schedule: Q01DX009 (ip), vehicle: Klucel (hydroxypropylcellulose) (HPC)) 113 % of control; (endpoint: mean survival time, dose: 25.0 mg/kg/injection, schedule: Q01DX009 (ip), vehicle: Klucel (hydroxypropylcellulose) (HPC)) 102 % of control; (endpoint: mean survival time, dose: 50.0 mg/kg/injection, schedule: Q01DX009 (ip), vehicle: Klucel (hydroxypropylcellulose) (HPC)) 94 % of control.

Turning to `CCOC(=O)C(=O)O`, the T/C under setting [7] was 104 % of control.

In the case of `CCCC1=NC(C)(C)CO1`, the T/C (endpoint: mean survival time, dose: 100.0 mg/kg/injection, schedule: Q04DX003 (ip), vehicle: saline) was 92 % of control; the T/C (endpoint: mean survival time, dose: 200.0 mg/kg/injection, schedule: Q04DX003 (ip), vehicle: saline) is 94 % of control; the T/C (endpoint: mean survival time, dose: 400.0 mg/kg/injection, schedule: Q04DX003 (ip), vehicle: saline) is 105 % of control.

With `COc1ccc(/C=N\O)cc1OC`, the T/C runs as follows: under setting [4], 101 % of control; under setting [5], 98 % of control; under setting [6], 87 % of control.

Take `CC1=NN(c2cccc(S(=O)(=O)O)c2)C(=O)C1`: the T/C (endpoint: mean survival time, dose: 100.0 mg/kg/injection, schedule: Q01DX009 (ip), vehicle: saline sonified) is 88 % of control.
